This is an account of results in US5886022A, “Substituted cycloalkanecarboxylic acid derivatives as matrix metalloprotease inhibitors” (priority 1997, dated 1999).

For experiment [1], the target named is T1, MMP-3 (recombinant truncated stromelysin) (Homo sapiens, UniProt P08254).
T1 construct: made in house; host or cells: E. coli
Put plainly: Primary Thiopeptilide MMP-3 Inhibition Assay. The following applies: x (n): average IC50 of n separate determinations. It is filed as biochemical.
Description: Reaction mixtures for inhibitor studies contained 1 mM Ac-Pro-Leu-Gly-S-Leu-Leu-Gly-o-ethyl thiopeptolide substrate dissolved in HEPES assay buffer pH 6.5, along with 0.5 mM 5,5'-dithio-bis-(nitrobenzoicacid), drug concentrations ranging from 0.5 nM to 5 μM and activated enzyme (10-100 ng) in a total volume of 130 μl. […] Enzyme mediated substrate hydrolysis was corrected for non-enzymatic hydrolysis of the substrate by the subtraction of values from control samples incubated in the absence of enzyme. Drug efficacy was reported as the percent inhibition of enzyme activity calculated as:
Enzyme: recombinant stromelysin expressed in E.coli and purified as described above. […] The protocols for the assay of compounds as stromelysin inhibitors was the same as that used for MMP-9 except that the assay buffer was 50 mM MES, pH 6.5 containing 150mM NaCl, 10 mM CaCl2, 0.005% Brij, and 1% DMSO.
All IC50 values are expressed as nM. […] When "x (n)" is shown, x is the erage IC50 value of n separate determinations.

The target of experiment [2] is T2, MMP-9 (Gelatinase-B, 92 kDa) (Homo sapiens, UniProt P14780).
T2 construct: from tissue; host or cells: human polymorphonuclear leukocytes from fresh whole blood (New York Blood Center), PMA-stimulated supernatant, purified
Put plainly: Thiopeptilide MMP-9 Inhibition Assay. It is filed as biochemical. The following applies: x (n): average IC50 of n separate determinations. As for the experimental part: MMP-9 was isolated modifying the previously described procedures of Hibbs et al (J. Biol. Chem., 260, 2493-2500, 1984) and Wilhelm et al (J. Biol. Chem., 264, 17213-17221, 1989). Briefly, polymorphonuclear leukocytes (PMN) preparations were isolated as described above from 3 or more units of freshly drawn whole blood obtained from the New York Blood Center (N.Y., N.Y.). Cells were resuspended in phosphate buffered saline (PBS) containing 100 ng/ml phorbol myristate acetate (PMA) in the presence of 50 mM di-isopropylfluorophospate (DFP), 1 μg/ml leupeptin and aprotinin, and 1 mg/ml catalase for 1 hr at 37° C. Supernatants were collected by centrifugation (300×g) and the samples were frozen at -70° C. All chromatographic methods were performed at 4° C. Thawed samples were concentrated 5-fold using an Amicon chamber equipped with a YM-10 membrane. The concentrate was pressure dialyzed against 0.02M Tris-HCl, 0.1M NaCl, 1 mM CaCl2, 1 μM ZnCl2, 0.001 % Brij-35, 0.02% sodium azide (NaN3), pH 7.5 and applied to DEAE ion exchange chromatography resin which was previously equilibrated with the same buffer at a flow rate of 0.4 ml/min. The column was extensively washed with the same buffer and gelatinase was eluted as 4 ml fractions from the column with 0.02M Tris-HCl, 0.5M NaCl, 1 mM CaCl2, 1 μM ZnCl2, 0.001% Brij-35, 0.02% NaN3, pH 7.5. Gelatinase containing fractions were observed by gelatin zymography (see below), loaded onto a gelatin agarose affinity resin and washed with the same buffer. Gelatinase activity was eluted at a flow rate of 1 ml/min from the column as 1 ml fractions with 0.02M Tris-HCl, 1M NaCl, 1 mM CaCl2, 1 μmM ZnCl2, 0.001% Brij-35, 0.02% NaN3, pH 7.5 containing 10% dimethyl sulfoxide (DMSO). The fractions containing gelatinase activity were pooled and dialyzed against 0.005M Tris-HCl, 5 mM NaCl, 0.5 mM CaCl2, 0.1 μM ZnCl2, 0.001% Brij-35, pH 7.4. The protein content associated with material was determined with a micro-BCA assay (Pierce, Rockford, Ill.), lyophilized and reconstituted to a desired working concentration (100 μg/ml).
Progelatinase (10 μg/ml) isolated from human PMNs (described above) was activated with 1 mM 4-aminophenylmercuric acetate (APMA) in 50 mM Tris-HCl, 200 mM NaCl, 5 mM CaCl2, 0.001% Brij-35, pH 7.6 at 37° C. for 16 hr. The activated enzyme was dialyzed against the above buffer to remove APMA. The thiopeptolide spectrophotometric ( Weingarten, H., Feder, J., Anal. Biochem., 147, 437-440, 1985) substrate hydrolysis assay was modified to a micro-assay format. Spectrophotometric analysis of MMP-9 activity required a 1000-fold dilution of activated MMP-9 (10 ng/ml, 0.14 nM) in assay buffer comprised of 50 mM 4-(2-hydroxyethyl)1-piperazine ethane sulfonic acid (HEPES), 0.15M NaCl, 10 mM CaCl2, 0.001% Brij-35, pH 6.5 between 100 and 1000-fold for enzyme assays. Reaction mixtures for inhibitor studies contained 1 mM Ac-Pro-Leu-Gly-S-Leu-Leu-Gly-o-ethyl thiopeptolide substrate dissolved in HEPES assay buffer pH 6.5, along with 0.5 mM 5,5'-dithio-bis-(nitrobenzoicacid), drug concentrations ranging from 0.5 nM to 5 μM and activated enzyme (10-100 ng) in a total volume of 130 μl. The hydrolysis of substrate was monitored at 405 nm using an automated plate reader (Molecular Devices, Menlo Park, Calif.). Enzyme mediated substrate hydrolysis was corrected for non-enzymatic hydrolysis of the substrate by the subtraction of values from control samples incubated in the absence of enzyme. Drug efficacy was reported as the percent inhibition of enzyme activity calculated as:
(Control Values-Treated Values)/Control Values×100
Two way analysis of variance was used to determine significance between individual test groups.
(§1) All IC50 values are expressed as nM. When "I=x %" is shown, x presents the % inhibition at 5 μM. When "x (n)" is shown, x is the erage IC50 value of n separate determinations.

For experiment [3], the target named is T3, MMP-3 (recombinant stromelysin) (Homo sapiens, UniProt P08254).
T3 construct: Expression and Purification of Recombinant Truncated Prostromelysin (MMP-3); made in house
Briefly: Secondary P218 Quenched fluorescence Assay for MMP-3 Inhibition. It is filed as biochemical.
Description: Truncated Prostromelysin-257 was expressed in a soluble form in E.coli as described by Marcy et al., Biochemistry, 30, 6476-6483, 1991. Soluble truncated prostromelysin was purified by a modification of the monoclonal antibody affinity chromatography method described by Housley et al., J. Biol. Chem., 268, 4481-87, 1993.
This assay was originally described by Knight et al., FEBS Letters, 296, 263-266, 1992, for a related substrate. The assay is run continuously in a 3.Oml cuvette using a Perkin-Elmer LS 50 B Spectrofluorimeter at 25° C. in a final volume of 2.0 mls. P218 substrate (10 mM) in 100% DMSO is diluted to a final concentration of 2.0 micromolar (μM) into assay buffer: 50 mM MES, pH 6.5 containing 150 mM NaCl, 10 mM CaCl2, 0.005% Brij-35, and 1%(v/v) DMSO. Test compounds(10 mM) in DMSO are diluted in assay buffer at an initial concentration of 10 to 100 micromolar. […] The reaction is initiated by the addition of recombinant stromelysin (MMP-3) at a final concentration of 1.0 nM. Upon peptide cleavage, the fluorescent MCA group was detected using an excitation wavelength of 328 nanometers and an emission wavelength of 393 nanometers. The assay is linear from 0.2 to 5 nM MMP-3 concentration and percent inhibition is calculated as described above for the primary thiopeptilide assay and IC50 values are determined by a linear regression analysis of percent inhibition versus log drug concentration. The peptide sequence of the MCA substrate, hereinafter esignated P218, is shown below:
MCA-Pro-Lys-Pro-Leu-Ala-Leu-DPA-Ala-Arg-NH2 P218
as §1

For experiment [4] the following is noted: fenbufen analogs, literature; cited from earlier work.

T3 sequence (P08254 100-274 limits assumed): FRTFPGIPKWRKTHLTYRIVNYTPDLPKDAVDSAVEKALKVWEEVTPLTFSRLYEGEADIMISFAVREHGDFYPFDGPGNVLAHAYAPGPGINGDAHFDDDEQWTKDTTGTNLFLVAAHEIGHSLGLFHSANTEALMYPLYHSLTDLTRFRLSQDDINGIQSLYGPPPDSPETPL
T1 sequence (P08254 100-274 limits assumed): as above
T2 sequence (P14780 107-707 limits assumed): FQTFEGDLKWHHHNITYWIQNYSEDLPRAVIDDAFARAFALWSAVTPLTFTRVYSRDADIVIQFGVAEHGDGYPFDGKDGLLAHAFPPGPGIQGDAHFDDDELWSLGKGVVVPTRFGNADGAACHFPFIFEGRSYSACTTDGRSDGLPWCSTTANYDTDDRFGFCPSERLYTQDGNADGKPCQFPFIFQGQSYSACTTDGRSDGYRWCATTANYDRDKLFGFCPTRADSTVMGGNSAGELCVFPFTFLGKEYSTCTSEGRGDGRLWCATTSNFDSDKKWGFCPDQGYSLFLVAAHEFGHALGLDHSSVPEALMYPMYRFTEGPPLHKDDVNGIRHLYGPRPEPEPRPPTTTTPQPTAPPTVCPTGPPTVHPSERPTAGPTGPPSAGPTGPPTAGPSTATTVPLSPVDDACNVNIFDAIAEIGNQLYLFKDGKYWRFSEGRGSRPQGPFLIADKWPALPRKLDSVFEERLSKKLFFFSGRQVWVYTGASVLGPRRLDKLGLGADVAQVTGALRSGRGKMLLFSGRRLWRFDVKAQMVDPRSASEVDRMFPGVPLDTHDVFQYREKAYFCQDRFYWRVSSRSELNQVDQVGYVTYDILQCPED

Regarding `O=C(O)[C@@H]1[C@@H](C(=O)c2ccc(-c3ccc(Cl)cc3)cc2)CC[C@H]1Sc1ccccc1` (single isomer, unassigned) [Example 211, Cyclopentanecarboxylic acid, 2-[(4'-chloro[1,1'-biphenyl]-4-yl)carbonyl]-5-(phenylthio)-, [1S-(1α,2β,5β)]-], the IC50 (usually the concentration that inhibits the measured activity by half) in experiment [1] was 26 nM; in experiment [2], 25 nM; in experiment [3] (P218 substrate, x (n): average IC50 of n separate determinations, read-out: MMP-3 Fluorogenic IC50), 12 nM.

For `CC(CC(=O)c1ccc(-c2ccccc2)cc1)C(=O)O` (stereo not shown) [XLVIII], in experiment [4], the activity in words entry was “inactive”. “MCA-Pro-Lys-Pro-Leu-Ala-Leu-DPA-Ala-Arg-NH2 [Example P218, reference compound]”: the “cat/Km value of substrate for MMP-3” value in experiment [3] (pH 6.5) is 56,000 M^-1 sec^-1. Moreover, the Km (as a rule, the concentration of substrate that gives half-maximal velocity) in experiment [3] (pH 6.5, read-out: Km of substrate for MMP-3) came out at 16 µM. As to `O=C(O)CC(C(=O)c1ccc(-c2ccccc2)cc1)c1ccccc1` (stereo not shown) [LXXVII], the activity in words result in experiment [4] was “inactive”.
